Laboratory results taken from patent US20250009745A1, “CDK INHIBITOR” (SHANGHAI QILU PHARMACEUTICAL RESEARCH AND DEVELOPMENT …, priority 2021, published 2025).

Tests used:
Assay in all cases: CDK enzymology experiment in vitro, capillary mobility shift assay (MSA)
Assay type in all cases: biochemical
CDK6 = biological target: T1, CDK6 (Homo sapiens, UniProt Q00534); conditions: read-out: CDK6 (nM) inhibitory IC50
T1 construct: purchased Carna Company
Protocol: (§1) CDK1/CDK2/CDK4/CDK6/CDK7/CDK9 were purchased from Carna Company; Carliper substrate CTD3/substrate 18/substrate 8 were purchased from Gil Biochemical Company; Dinaciclib/Palbociclib were purchased from Selleckchem Company; DMSO was purchased from Sigma Company; 384-well plates were purchased from Corning Company.
• (1) Preparation of 1×Kinase buffer. • (2) Preparation of compound concentration gradient: Test concentration of the test compound was started at 1 μM, 10 μM or 30 μM, 3-fold dilution, 10 concentrations, detected in duplicate. […] Liquid handler Echo 550 was used to transfer 250 nL of 100-fold final concentration of the compound to the target plate 384-well plate. […] The 384-well plate was centrifuged at 1000 rpm for 30 seconds, and shaken to mix uniformly. • (10) The conversion rate was read with Caliper EZ Reader.
(§2) Where, conversion %_sample is the readings of conversion rate of the sample; conversion %_min: the average value of negative control wells, representing the readings of conversion rate of wells without enzyme activity; conversion %_max: the average value of positive control wells, representing the readings of conversion rate of wells without compound inhibition.
(§3) Taking the log value of the concentration as the X-axis, and the percentage inhibition rate as the Y-axis, the dose-effect curve was fitted using the log(inhibitor) vs. response—Variable slope of the analysis software GraphPad Prism 5 so as to obtain the IC50 value of each compound on the enzyme activity.
(§4) Y=Bottom+(Top−Bottom)/(1+10^((Log IC50−X)*HillSlope)). Calculation formula: […]

CDK2 = biological target: T2, CDK2 (Homo sapiens, UniProt P24941); conditions: read-out: CDK2 (nM) inhibitory IC50
T2 construct: purchased Carna Company
Protocol: as §1
(§5) • (1) Preparation of 1×Kinase buffer. • (2) Preparation of compound concentration gradient: Test concentration of the test compound was started at 1 μM, 10 μM or 30 μM, 3-fold dilution, 10 concentrations, detected in duplicate. The test compound was diluted to a 100-fold final concentration with 100% DMSO solution in a 384 source plate. Liquid handler Echo 550 was used to transfer 250 nL of 100-fold final concentration of the compound to the target plate 384-well plate. […] The 384-well plate was centrifuged at 1000 rpm for 30 seconds, and shaken to mix uniformly. • (10) The conversion rate was read with Caliper EZ Reader.
as §2, §3, §4

CDK4 = biological target: T3, CDK4 (Homo sapiens, UniProt P11802); conditions: read-out: CDK4 (nM) inhibitory IC50
T3 construct: purchased Carna Company
Protocol: as §1, §5, §2, §3, §4

T1 sequence (Q00534 whole entry): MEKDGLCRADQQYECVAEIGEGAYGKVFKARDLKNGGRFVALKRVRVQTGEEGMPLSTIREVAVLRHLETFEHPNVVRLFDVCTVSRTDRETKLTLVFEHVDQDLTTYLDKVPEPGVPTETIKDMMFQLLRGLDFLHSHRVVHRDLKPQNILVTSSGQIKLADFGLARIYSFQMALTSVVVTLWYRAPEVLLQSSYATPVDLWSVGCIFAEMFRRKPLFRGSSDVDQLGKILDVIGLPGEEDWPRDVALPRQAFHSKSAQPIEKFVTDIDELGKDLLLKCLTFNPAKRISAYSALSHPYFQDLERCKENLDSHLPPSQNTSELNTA
T1 sequence (P30281 whole entry partner): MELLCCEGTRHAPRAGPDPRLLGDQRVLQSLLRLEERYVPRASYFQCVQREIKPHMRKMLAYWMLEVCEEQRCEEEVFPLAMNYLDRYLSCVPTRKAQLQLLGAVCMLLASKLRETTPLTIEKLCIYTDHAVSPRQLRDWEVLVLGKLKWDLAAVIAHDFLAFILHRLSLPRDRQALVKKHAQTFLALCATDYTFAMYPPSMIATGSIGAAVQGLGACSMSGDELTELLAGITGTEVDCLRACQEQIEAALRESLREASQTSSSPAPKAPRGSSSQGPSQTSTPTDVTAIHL
T3 sequence (P11802 whole entry): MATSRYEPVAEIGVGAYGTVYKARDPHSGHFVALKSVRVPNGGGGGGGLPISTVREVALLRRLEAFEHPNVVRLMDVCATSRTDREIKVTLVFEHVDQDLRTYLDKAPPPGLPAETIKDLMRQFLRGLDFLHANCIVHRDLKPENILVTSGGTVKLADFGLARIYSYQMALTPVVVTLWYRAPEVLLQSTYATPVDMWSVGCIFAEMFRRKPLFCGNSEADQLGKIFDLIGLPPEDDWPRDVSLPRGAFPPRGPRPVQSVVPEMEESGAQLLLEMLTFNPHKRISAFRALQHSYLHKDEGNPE
T3 sequence (P30281 whole entry partner): as the sequence (P30281 whole entry partner) above

SMILES	IC50 (CDK6)	IC50 (CDK2)	IC50 (CDK4)
Cn1cc(-c2ccc(S(=O)(=O)N3CCC(Nc4ncc(C#N)c(N[C@H]5CC[C@@H](O)C5)n4)CC3)cc2)cn1 (relative stereo) [Compound 62]	0.5 to 2.5 nM	0.5 to 2.5 nM	0.5 to 2.5 nM
Cn1cc(-c2ccc(S(=O)(=O)N3CCC(Nc4ncc(C#N)c(N[C@H]5CC[C@H](O)C5)n4)CC3)cc2)cn1 (single isomer, unassigned) [Compound 83]	0.5 to 2.5 nM	0.5 to 2.5 nM	0.5 to 2.5 nM
Cn1cc(-c2ccc(S(=O)(=O)N3CCC(Nc4ncc(C#N)c(N[C@H]5CC[C@@H](O)C5)n4)CC3)cc2)cn1 (single isomer, unassigned) [Compound 86]	0.5 to 2.5 nM	< 0.5 nM	0.5 to 2.5 nM
Cn1cc(-c2ccc(S(=O)(=O)N3CCC(Nc4ncc(C#N)c(N[C@@H]5CC[C@H](O)C5)n4)CC3)cc2)cn1 (single isomer, unassigned) [Compound 87]	0.5 to 2.5 nM	0.5 to 2.5 nM	0.5 to 2.5 nM
Cn1cc(-c2ccc(S(=O)(=O)N3CCC(Nc4ncc(C#N)c(N[C@H]5CCC[C@H]5O)n4)CC3)cc2)cn1 [Compound 51]	0.5 to 2.5 nM	0.5 to 2.5 nM	2.5 to 10 nM
Cn1cc(S(=O)(=O)N2CCC(Nc3ncc(C#N)c(N(C4CCCC4)C4CC4)n3)CC2)cn1 [Compound 82]	0.5 to 2.5 nM	0.5 to 2.5 nM	2.5 to 10 nM
Cn1cc(S(=O)(=O)N2CCC(Nc3ncc([N+](=O)[O-])c(NC4CCCC4)n3)CC2)cn1 [Compound 84]	0.5 to 2.5 nM	10 to 50 nM	2.5 to 10 nM
N#Cc1cnc(NC2CCN(S(=O)(=O)c3ccc(N4CCNCC4)cc3)CC2)nc1NC1CCCC1 [Compound 90]	0.5 to 2.5 nM	0.5 to 2.5 nM	0.5 to 2.5 nM
Cn1cc(-c2ccc(S(=O)(=O)N3CCC(Nc4ncc(C#N)c(N[C@@H]5CCOC5)n4)CC3)cc2)cn1 [Compound 95]	–	0.5 to 2.5 nM	10 to 50 nM
Cn1cc(S(=O)(=O)N2CCC(Nc3ncc(C#N)c(SC4CCCC4)n3)CC2)cn1 [Compound 96]	–	0.5 to 2.5 nM	2.5 to 10 nM
Cn1cc(S(=O)(=O)N2CCC(Nc3ncc(C#N)c(S(=O)(=O)C4CCCC4)n3)CC2)cn1 [Compound 97]	–	0.5 to 2.5 nM	10 to 50 nM
Cn1cc(S(=O)(=O)N2CCC(Nc3ncc(C#N)c([S+]([O-])C4CCCC4)n3)CC2)cn1 (centres unmarked) [Compound 98]	–	< 0.5 nM	10 to 50 nM
O=S(=O)(c1ccc(C2=CCNCC2)cc1)N1CCC(Nc2ncc(C(F)(F)F)c(N[C@@H]3CCC[C@H]3O)n2)CC1 [Compound 102]	–	0.5 to 2.5 nM	2.5 to 10 nM
N#Cc1cnc(NC2CCN(S(=O)(=O)c3ccc(-c4cn[nH]c4)cc3)CC2)nc1N[C@H]1CCOC1 [Compound 105]	–	0.5 to 2.5 nM	10 to 50 nM
N#Cc1cnc(NC2CCN(S(=O)(=O)c3ccc(Br)cc3)CC2)nc1N[C@H]1CCOC1 [Compound 106]	–	10 to 50 nM	100 to 1000 nM
O=S(=O)(c1cnn(C2CCOCC2)c1)N1CCC(Nc2ncc(C(F)(F)F)c(O[C@H]3CCOC3)n2)CC1 [Compound 108]	–	0.5 to 2.5 nM	2.5 to 10 nM
O=S(=O)(c1ccccn1)N1CCC(Nc2ncc(C(F)(F)F)c(O[C@H]3CCOC3)n2)CC1 [Compound 109]	–	0.5 to 2.5 nM	10 to 50 nM
CC(C)n1cc(S(=O)(=O)N2CCC(Nc3ncc(C(F)(F)F)c(O[C@H]4CCOC4)n3)CC2)cn1 [Compound 110]	–	0.5 to 2.5 nM	10 to 50 nM
Cn1cc(S(=O)(=O)N2CCC(Nc3ncc(C(F)(F)F)c(O[C@H]4CCOC4)n3)[C@@H](F)C2)cn1 (some centres unmarked) [Compound 120]	–	2.5 to 10 nM	10 to 50 nM
Cn1cc(S(=O)(=O)N2CCC(Nc3ncc(C(F)(F)F)c(O[C@@H]4COC[C@@H]4F)n3)CC2)cn1 [Compound 124]	–	2.5 to 10 nM	100 to 1000 nM
Cn1cc(S(=O)(=O)N2CC[C@@H](Nc3ncc(C(F)(F)F)c(O[C@H]4CCOC4)n3)[C@H](F)C2)cn1 [Compound 125]	–	0.5 to 2.5 nM	10 to 50 nM

SMILES	IC50 (CDK6)	IC50 (CDK2)	IC50 (CDK4)
Cn1cc(S(=O)(=O)N2CCC(Nc3ncc(C(F)F)c(O[C@H]4CCOC4)n3)CC2)cn1 [Compound 126]	–	10 to 50 nM	100 to 1000 nM
Cn1cc(S(=O)(=O)N2CC[C@H](Nc3ncc(C(F)(F)F)c(O[C@H]4CCOC4)n3)[C@H](F)C2)cn1 [Compound 127]	–	< 0.5 nM	10 to 50 nM
Cn1cc(S(=O)(=O)N2CC[C@@H](Nc3ncc(C(F)(F)F)c(O[C@H]4CCOC4)n3)[C@@H](F)C2)cn1 [Compound 128]	–	10 to 50 nM	100 to 1000 nM
Cn1cc(S(=O)(=O)N2CCC(Nc3ncc(C(F)(F)F)c(O[C@H]4CCOC4)n3)C(F)(F)C2)cn1 (some centres unmarked) [Compound 129]	–	2.5 to 10 nM	10 to 50 nM
NC(=O)Cn1cc(S(=O)(=O)N2CCC(Nc3ncc(C(F)(F)F)c(O[C@H]4CCOC4)n3)CC2)cn1 [Compound 134]	–	< 0.5 nM	10 to 50 nM
Cn1cc(-c2ccc(S(=O)(=O)N3CCC(Nc4ncc(C#N)c(NC5(C)CCOC5)n4)CC3)cc2)cn1 (centres unmarked) [Compound 150]	–	0.5 to 2.5 nM	2.5 to 10 nM
CC(C)(O)Cn1cc(S(=O)(=O)N2CCC(Nc3ncc(C(F)(F)F)c(O[C@H]4CCOC4)n3)CC2)cn1 [Compound 156]	–	0.5 to 2.5 nM	2.5 to 10 nM
Cn1cc(S(=O)(=O)N2CCC(Nc3cc(O[C@H]4CCOC4)c(C#N)cn3)CC2)cn1 [Compound 158]	–	2.5 to 10 nM	10 to 50 nM
Cn1cc(S(=O)(=O)N2CCC(Nc3cc(N[C@H]4CCOC4)c(C#N)cn3)CC2)cn1 [Compound 164]	–	10 to 50 nM	50 to 100 nM
Cn1cc(-c2ccc(S(=O)(=O)N3CCC(Nc4cc(N[C@H]5CCOC5)c(C#N)cn4)CC3)cc2)cn1 [Compound 166]	–	0.5 to 2.5 nM	2.5 to 10 nM
O=S(=O)(c1ccc(C2=CCNCC2)cc1)N1CCC(Nc2ncc(C(F)(F)F)c(C=C3CCCC3)n2)CC1 [Compound 201]	–	0.5 to 2.5 nM	2.5 to 10 nM
CS(=O)(=O)N1CCC(Nc2ncc(C#N)c(-c3ccccc3)n2)CC1 [Example 4, 2-((1-(Methylsulfonyl)piperidin-4-yl)amino)-4-phenylpyrimidine-5-carbonitrile]	–	10 to 50 nM	10 to 50 nM
Cn1cc(S(=O)(=O)N2CCC(Nc3ncc(C#N)c(C=C4CCCC4)n3)CC2)cn1 [Example 9, 4-(Cyclopentylidenemethyl)-2-((1-((1-methyl-1H-pyrazol-4-yl)sulfonyl)piperidin-4-yl)amino)pyrimidine-5-carbonitrile]	–	0.5 to 2.5 nM	10 to 50 nM
Cn1cc(S(=O)(=O)N2CCC(Nc3ncc(C#N)c(CC4CCCC4)n3)CC2)cn1 [Example 10, 4-(Cyclopentylmethyl)-2-((1-((1-methyl-1H-pyrazol-4-yl)sulfonyl)piperidin-4-yl)amino)pyrimidine-5-carbonitrile]	–	2.5 to 10 nM	10 to 50 nM
CO[C@@H]1CCC[C@H]1Nc1nc(NC2CCN(S(=O)(=O)c3cnn(C)c3)CC2)ncc1C#N [Example 14]	–	10 to 50 nM	100 to 1000 nM
CN1CCN(Cc2ccc(S(=O)(=O)N3CCC(Nc4ncc(C#N)c(NC5CCCC5)n4)CC3)cc2)CC1 [Example 22, 4-(Cyclopentylamino)-2-((1-((4-((4-methylpiperazin-1-yl)methyl)phenyl)sulfonyl)piperidin-4-yl)amino)pyrimidine-5-carbonitrile]	–	2.5 to 10 nM	10 to 50 nM
CN(C)[C@@H]1CCCC1Nc1nc(NC2CCN(S(=O)(=O)c3cnn(C)c3)CC2)ncc1C#N (some centres unmarked) [Example 23]	–	2.5 to 10 nM	50 to 100 nM
CC(C)(O)c1ccc(S(=O)(=O)N2CCC(Nc3ncc(C#N)c(NC4CCCC4)n3)CC2)cc1 [Example 24, 4-(Cyclopentylamino)-2-((1-((4-(2-hydroxypropan-2-yl)phenyl)sulfonyl)piperidin-4-yl)amino)pyrimidine-5-carbonitrile]	–	0.5 to 2.5 nM	2.5 to 10 nM
O=S(=O)(c1cn[nH]c1)N1CCC(Nc2ncc(C(F)(F)F)c(O[C@H]3CCOC3)n2)CC1 [Example 25]	–	< 0.5 nM	2.5 to 10 nM
O=S(=O)(c1cnn(S(=O)(=O)c2cn[nH]c2)c1)N1CCC(Nc2ncc(C(F)(F)F)c(O[C@H]3CCOC3)n2)CC1 [Example 26, (S)—N-(1-((1-((1H-Pyrazol-4-yl)sulfonyl)-1H-pyrazol-4-yl)sulfonyl)piperidin-4-yl)-4-((tetrahydrofuran-3-yl)oxy)-5-(trifluoromethyl)pyrimidin-2-amine]	–	< 0.5 nM	2.5 to 10 nM
O=S(=O)(c1ccc(Br)cc1)N1CCC(Nc2ncc(C(F)(F)F)c(O[C@H]3CCOC3)n2)CC1 [Example 99]	–	0.5 to 2.5 nM	2.5 to 10 nM
